Measurements published in ChEMBL document CHEMBL5108059, “Discovery of 2-Methyl-2-(4-(2-methyl-8-(1H-pyrrolo[2,3-b]pyridin-6-yl)-1H-naphtho[1,2-d]imidazol-1-yl)phenyl)propanenitrile as a Novel PI3K/mTOR Inhibitor with Enhanced Antitumor Efficacy In Vitro and In Vivo” (J Med Chem, 2022).
pIC50: −log10 of the molar value. Calls of active or inactive are those of the source. The rule behind the calls is not given here.

Columns and labels:
[1] = target: Phosphatidylinositol 4,5-bisphosphate 3-kinase catalytic subunit alpha isoform (Homo sapiens, UniProt P42336); assay: Inhibition of PI3Kalpha (unknown origin) using PIP2 as substrate incubated for 1 hr in presence of ATP by Kinase Glo luminescence assay
Sequence of Phosphatidylinositol 4,5-bisphosphate 3-kinase catalytic subunit alpha isoform (P42336 whole entry, canonical isoform): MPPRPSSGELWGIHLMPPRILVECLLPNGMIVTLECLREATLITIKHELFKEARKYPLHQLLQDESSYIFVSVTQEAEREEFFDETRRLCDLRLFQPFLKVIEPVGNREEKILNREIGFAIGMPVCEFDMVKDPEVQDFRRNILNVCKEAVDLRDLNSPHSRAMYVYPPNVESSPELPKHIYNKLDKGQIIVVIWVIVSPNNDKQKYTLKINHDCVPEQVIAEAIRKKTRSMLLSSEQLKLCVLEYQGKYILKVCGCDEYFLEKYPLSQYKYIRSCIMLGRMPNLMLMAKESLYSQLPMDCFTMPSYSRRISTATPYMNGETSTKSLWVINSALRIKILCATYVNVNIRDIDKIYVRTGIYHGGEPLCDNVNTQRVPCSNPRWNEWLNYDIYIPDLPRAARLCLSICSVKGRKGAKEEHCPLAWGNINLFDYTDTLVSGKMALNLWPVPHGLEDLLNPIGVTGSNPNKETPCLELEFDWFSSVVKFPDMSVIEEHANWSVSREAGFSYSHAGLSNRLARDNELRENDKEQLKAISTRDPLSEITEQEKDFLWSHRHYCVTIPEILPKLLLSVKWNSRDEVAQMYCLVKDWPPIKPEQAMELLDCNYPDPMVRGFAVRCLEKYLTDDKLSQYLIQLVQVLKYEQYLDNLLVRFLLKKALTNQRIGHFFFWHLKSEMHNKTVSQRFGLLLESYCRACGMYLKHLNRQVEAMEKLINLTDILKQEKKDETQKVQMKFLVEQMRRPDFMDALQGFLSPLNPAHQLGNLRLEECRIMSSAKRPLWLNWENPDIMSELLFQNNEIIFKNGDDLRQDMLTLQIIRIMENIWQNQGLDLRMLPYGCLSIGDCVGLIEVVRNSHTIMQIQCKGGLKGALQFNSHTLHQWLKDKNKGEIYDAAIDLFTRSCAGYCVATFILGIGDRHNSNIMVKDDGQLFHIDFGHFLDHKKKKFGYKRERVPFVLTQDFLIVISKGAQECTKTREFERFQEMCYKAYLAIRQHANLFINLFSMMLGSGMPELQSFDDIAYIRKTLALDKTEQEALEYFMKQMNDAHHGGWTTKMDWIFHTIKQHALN

[2] = target: Phosphatidylinositol 4,5-bisphosphate 3-kinase catalytic subunit gamma isoform (Homo sapiens, UniProt P48736); assay: Inhibition of PI3Kgamma (unknown origin) using PIP2 as substrate incubated for 2 hrs in presence of ATP by Kinase Glo luminescence assay
Sequence of Phosphatidylinositol 4,5-bisphosphate 3-kinase catalytic subunit gamma isoform (P48736 whole entry, canonical isoform): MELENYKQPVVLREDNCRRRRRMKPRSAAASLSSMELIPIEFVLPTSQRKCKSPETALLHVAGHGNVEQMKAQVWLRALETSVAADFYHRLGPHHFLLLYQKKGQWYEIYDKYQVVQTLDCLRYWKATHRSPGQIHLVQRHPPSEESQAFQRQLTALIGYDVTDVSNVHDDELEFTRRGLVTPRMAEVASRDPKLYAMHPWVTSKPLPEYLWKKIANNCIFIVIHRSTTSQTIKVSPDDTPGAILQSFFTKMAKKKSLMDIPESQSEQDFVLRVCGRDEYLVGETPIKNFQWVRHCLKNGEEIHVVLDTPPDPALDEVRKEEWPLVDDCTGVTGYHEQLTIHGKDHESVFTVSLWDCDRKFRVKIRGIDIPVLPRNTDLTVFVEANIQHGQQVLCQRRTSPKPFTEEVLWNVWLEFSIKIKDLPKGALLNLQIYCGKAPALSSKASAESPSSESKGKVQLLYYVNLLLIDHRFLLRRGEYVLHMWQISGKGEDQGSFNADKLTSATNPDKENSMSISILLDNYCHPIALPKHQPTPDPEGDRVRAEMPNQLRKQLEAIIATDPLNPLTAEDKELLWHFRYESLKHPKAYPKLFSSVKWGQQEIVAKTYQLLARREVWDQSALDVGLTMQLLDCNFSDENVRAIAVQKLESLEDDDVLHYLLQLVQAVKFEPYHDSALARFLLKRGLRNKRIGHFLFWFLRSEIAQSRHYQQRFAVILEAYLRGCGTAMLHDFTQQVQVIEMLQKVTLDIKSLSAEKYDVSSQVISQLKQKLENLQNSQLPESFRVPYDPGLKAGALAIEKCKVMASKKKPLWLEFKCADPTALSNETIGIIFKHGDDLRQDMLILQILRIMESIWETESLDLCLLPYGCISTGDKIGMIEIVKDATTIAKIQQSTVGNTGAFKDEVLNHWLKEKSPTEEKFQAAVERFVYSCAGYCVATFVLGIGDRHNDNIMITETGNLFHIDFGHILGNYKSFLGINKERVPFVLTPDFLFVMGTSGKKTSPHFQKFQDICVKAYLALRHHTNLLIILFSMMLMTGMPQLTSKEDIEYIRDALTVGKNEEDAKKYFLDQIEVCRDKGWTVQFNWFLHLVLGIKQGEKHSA

[3] = system: HCT-15; assay: Antiproliferative activity against human HCT-15 cells with PIK3CA mutation assessed as inhibition of cell growth incubated for 48 to 72 hrs by MTT assay; assay type: functional, cell-based
[4] = system: HeLa; assay: Antiproliferative activity against human HeLa cells assessed as inhibition of cell growth incubated for 48 to 72 hrs by MTT assay; assay type: functional, cell-based
[5] = system: NCI-H446; assay: Antiproliferative activity against PTEN-null human NCI-H446 cells assessed as inhibition of cell growth incubated for 48 to 72 hrs by MTT assay; assay type: functional, cell-based
[6] = system: SW-620; assay: Inhibition of colony formation in human SW620 cells assessed as reduction in colony forming ability at 1.25 uM incubated for 15 days by crystal violet staining based analysis; assay type: functional; conditions: SW-620, 360 h, time 15 day
[7] = system: HeLa; assay: Induction of apoptosis in human HeLa cells assessed as viable cells at 0.15625 uM incubated for 36 hrs by Annexin V-FITC/PI staining based flow cytometric analysis (reference value: 96.14 %); assay type: functional; conditions: read-out: Activity
[8] = system: HeLa; assay: Induction of apoptosis in human HeLa cells assessed as dead cells at 0.15625 uM incubated for 36 hrs by Annexin V-FITC/PI staining based flow cytometric analysis (reference value: 0.44 %); assay type: functional; conditions: 0.1562 µM
[9] = system: HeLa; assay: Induction of apoptosis in human HeLa cells assessed as early apoptotic cells at 0.3125 uM incubated for 36 hrs by Annexin V-FITC/PI staining based flow cytometric analysis (reference value: 2.02 %); assay type: functional
[10] = system: HeLa; assay: Induction of apoptosis in human HeLa cells assessed as late apoptotic cells at 0.3125 uM incubated for 36 hrs by Annexin V-FITC/PI staining based flow cytometric analysis (reference value: 1.4 %); assay type: functional
[11] = system: HeLa; assay: Induction of apoptosis in human HeLa cells assessed as dead cells at 0.3125 uM incubated for 36 hrs by Annexin V-FITC/PI staining based flow cytometric analysis (reference value: 0.44 %); assay type: functional
[12] = system: HeLa; assay: Induction of apoptosis in human HeLa cells assessed as late apoptotic cells at 0.625 uM incubated for 36 hrs by Annexin V-FITC/PI staining based flow cytometric analysis (reference value: 1.4 %); assay type: functional
[13] = system: HeLa; assay: Induction of apoptosis in human HeLa cells assessed as dead cells at 0.625 uM incubated for 36 hrs by Annexin V-FITC/PI staining based flow cytometric analysis (reference value: 0.44 %); assay type: functional
[14] = system: HeLa; assay: Induction of cell cycle arrest in human HeLa cells assessed as accumulation of cells at G0/G1 phase measured after 24 hrs by propidium iodide staining based flow cytometry analysis; assay type: functional; conditions: dose 0.15625-2.5 µM, DDE = dose-dependent effect
[15] = system: HeLa; assay: Antitumor activity against human HeLa cells xenografted in BALB/c nude mouse assessed as tumor growth inhibition at 30 mg/kg, IG administered daily for 30 days and measured every 2 days relative to control; assay type: functional; conditions: po, 720 h, time 30 day, read-out: TGI
[16] = system: SW-620; assay: Antitumor activity against human SW620 cells xenografted in BALB/c nude mouse assessed as tumor growth inhibition at 15 mg/kg, IG administered daily for 30 days and measured every 2 days relative to control; assay type: functional; conditions: SW-620, po, 720 h, time 30 day, read-out: TGI
[17] = Toxicity in BALB/c nude mouse xenografted with human HeLa cells assessed as lethality at 15 to 60 mg/kg, IG administered daily for 30 days and measured every 2 days; assay type: organism-based; conditions: in vivo, po, 720 h, dose 15-60 mg/kg, time 30 day
[18] = system: HeLa; assay: Induction of apoptosis in human HeLa cells xenografted in BALB/c nude mouse at 15 to 60 mg/kg, IG administered daily for 30 days by TUNEL assay; assay type: functional, organism-based; conditions: dose 15-60 mg/kg, time 30.0 day
[19] = Toxicity in BALB/c nude mouse xenografted with human HeLa cells assessed as pathological changes in heart at 60 mg/kg, IG administered daily for 30 days by hematoxylin and eosin staining based microscopic analysis; assay type: organism-based; conditions: in vivo, po, 720 h, time 30 day
[20] = Toxicity in BALB/c nude mouse xenografted with human HeLa cells assessed as pathological changes in kidney at 60 mg/kg, IG administered daily for 30 days by hematoxylin and eosin staining based microscopic analysis; assay type: organism-based; conditions: in vivo, po, 720 h, time 30 day
[21] = target: T1, Phosphatidylinositol 4,5-bisphosphate 3-kinase catalytic subunit delta isoform (Homo sapiens, UniProt O00329); assay: Inhibition of PI3Kdelta (unknown origin) using L-alpha-phosphatidylinositol as substrate incubated for 60 mins in presence of ATP by Kinase Glo luminescence assay
T1 sequence (O00329 whole entry): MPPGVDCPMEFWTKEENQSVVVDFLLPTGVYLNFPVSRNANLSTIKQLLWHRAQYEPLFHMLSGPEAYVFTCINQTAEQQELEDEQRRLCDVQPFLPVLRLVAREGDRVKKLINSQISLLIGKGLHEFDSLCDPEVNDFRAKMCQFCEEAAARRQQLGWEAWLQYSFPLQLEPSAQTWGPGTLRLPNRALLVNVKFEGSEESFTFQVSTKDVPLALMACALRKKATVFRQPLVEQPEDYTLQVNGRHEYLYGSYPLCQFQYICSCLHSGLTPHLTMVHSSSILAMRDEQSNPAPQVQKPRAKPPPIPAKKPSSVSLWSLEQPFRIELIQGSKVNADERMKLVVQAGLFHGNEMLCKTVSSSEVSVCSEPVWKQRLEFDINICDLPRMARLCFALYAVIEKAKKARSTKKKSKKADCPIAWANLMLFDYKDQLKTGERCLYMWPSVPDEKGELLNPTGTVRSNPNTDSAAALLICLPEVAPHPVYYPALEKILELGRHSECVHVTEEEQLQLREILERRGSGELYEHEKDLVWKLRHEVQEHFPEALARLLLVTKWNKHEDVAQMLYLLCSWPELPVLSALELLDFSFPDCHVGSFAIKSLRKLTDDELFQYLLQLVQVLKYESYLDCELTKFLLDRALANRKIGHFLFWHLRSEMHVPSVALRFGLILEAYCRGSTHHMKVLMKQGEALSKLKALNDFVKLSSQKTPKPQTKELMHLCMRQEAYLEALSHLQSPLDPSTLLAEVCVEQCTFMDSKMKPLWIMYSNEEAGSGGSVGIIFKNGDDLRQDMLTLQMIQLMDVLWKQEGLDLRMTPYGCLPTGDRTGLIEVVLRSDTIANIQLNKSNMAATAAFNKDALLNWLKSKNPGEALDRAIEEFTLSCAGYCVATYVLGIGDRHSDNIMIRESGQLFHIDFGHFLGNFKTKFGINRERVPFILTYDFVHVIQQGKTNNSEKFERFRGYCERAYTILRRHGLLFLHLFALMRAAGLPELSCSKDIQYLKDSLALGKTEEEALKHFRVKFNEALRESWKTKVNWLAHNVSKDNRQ

For `Cc1nc2cnc3ccc(-c4cnc5[nH]ccc5c4)cc3c2n1-c1ccc(C(C)(C)C#N)nc1`, the pIC50 [1] was 8.46, the pIC50 [2] was 7.10 and the pIC50 [3] was 6.77. For the same compound, the pIC50 [4] was 7.05, the pIC50 [5] was 6.01 and the inhibition at 1.25 µM [6] was 100%. The viability at 0.1562 µM [7] was 93.5%, the Activity [8] was 0.4% and the Activity [9] was 6.23%. It also gave an Activity [10] of 3%, an Activity [11] of 0.84% and an Activity [12] of 8.81%. The Activity [13] was 2.75%, the Activity [14] was “Dde” and the inhibition in vivo at 30 mg/kg [15] was 73.5%. The inhibition in vivo at 15 mg/kg [16] was 60.6%, the Activity [17] was “Non-Toxic” and the Activity [18] was “Active”. The Activity [19] was “Non-Toxic”, the Activity [20] was “Non-Toxic” and the pIC50 [21] was 8.15.
